Measurements: patent US4309340A, “Polypeptide compositions” (American Home Products Corporation, priority 1980, dated 1982)
Where a SMILES comes first, the peptide text is derived from it. Where no end group is shown, it is not given here. [ ]: non-standard residue; d: D form.

Key:
[1] = system: T lymphocytes isolated from spleens of male CBA/J or NZB mice; assay: T lymphocyte proliferation, 3H-thymidine incorporation; assay type: cell-based; set-up: key: A = Active; IA = Inactive; settings: 48 hours culture, 200 μl
Method: The activity of the compounds of Example 2 and Example 4 was determined according to the following procedure:
T lymphocytes are isolated from spleens of male CBA/J or NZB mice. Cell homogenates are prepared in Hank's balanced salt solution (HBSS). After removal of larger particles and repeated washing of the cells in HBSS they are suspended in minimum essential medium (MEM) and passed through a glass wool column to remove macrophages. The cells are then incubated on a nylon wool column at 37° C., 95% air, 5% CO2, for 45 minutes. The non-adherant T lymphocytes are then eluted from the column, counted, and adjusted to 20×10^6 cells/ml. 50 μl of cells are cultured (37° C., 95% air, 5% CO2) with compound, for 48 hours before the addition of 0.5 μCi. of 3H-thymidine for the last 16 hours of culture. The total volume of the culture system is 200 μl. The cells are then harvested on a multiple automatic sample harvester (Mash II), the glass fiber filter disks placed in 10 ml. of xylene base scintillation fluid, and counted for 1 minute in a liquid scintillation counter. Results are reported as CPM±SE. Comparisons are made between counts obtained with control cultures and cultures containing compound and a determination made as to whether the compounds are active at the dosage tested.

[2] = system: autologous rosette-forming cells in the spleens of athymic mice; settings: in vivo; cited from earlier work

Compound | Activity (T-cell proliferation, 3H-thymidine CPM vs control cultures) ([1]; 0.0015 μg/culture) | Activity (T-cell proliferation, 3H-thymidine CPM vs control cultures) ([1]; 0.006 μg/culture) | Activity (T-cell proliferation, 3H-thymidine CPM vs control cultures) ([1]; 0.025 μg/culture) | Activity (T-cell proliferation, 3H-thymidine CPM vs control cultures) ([1]; 0.05 μg/culture) | Activity (T-cell proliferation, 3H-thymidine CPM vs control cultures) ([1]; 0.1 μg/culture) | Activity (T-cell proliferation, 3H-thymidine CPM vs control cultures) ([1]; 0.2 μg/culture) | Numbers of autologous rosette-forming cells in spleens of athymic mice [2]
CC(=O)O.CC(=O)O.CC(=O)O.CC(C)[C@H](NC(=O)[C@H](CC(N)=O)NC(=O)[C@H](CCCCN)NC(=O)[C@@H](N)CCCNC(=N)N)C(=O)N[C@@H](Cc1ccc(O)cc1)C(N)=O [Arg--Lys--Asn--Val--Tyr--NH2, L-Arginyl-L-lysyl-L-asparaginyl-L-valyl-L-tyrosyl-amide triacetate salt] (H-RKNVY-NH2) | A | A | A | A | A | IA | 
CC(=O)O.CC(=O)O.CC(=O)O.CC(C)[C@H](NC(=O)[C@H](CC(N)=O)NC(=O)[C@H](CCCCN)NC(=O)[C@H](N)CCCNC(=N)N)C(=O)N[C@H](Cc1ccccc1)C(N)=O [D-Arg--Lys--Asn--Val--D-Phe--NH2, D-Arginyl-L-lysyl-L-asparaginyl-L-valyl-D-phenylalanyl amide tri acetate salt] (H-[dR]KNV[dF]-NH2) | A | A | A |  | A |  | 
RKDVY [arginyl-lysyl-aspartyl-valyl-tyrosine] |  |  |  |  |  |  | reducing the high numbers of autologous rosette-forming cells
